In patent US11814367B2, “Inhibitors of glycogen synthase 1 (GYS1) and methods of use thereof” (Maze Therapeutics, Inc., priority 2021, dated 2023):

How the values were obtained:
[1] = molecular target: hGYS1 enzyme (recombinant hGYS1/GN1 protein) (Homo sapiens (Human), UniProt P13807); assay: GYS1 coupled enzyme assay (PK/LDH); format: biochemical; settings: hGYS1/GN1 50 nM, UDP-Glucose 0.8 mM, G6P 1 mM; geometric mean of at least 2 runs
[2] = molecular target: hGYS2 enzyme (recombinant hGYS2/GN1 protein) (Homo sapiens (Human), UniProt P54840); assay: GYS2 coupled enzyme assay (PK/LDH); format: biochemical; settings: geometric mean of at least 2 assay runs on separate days, read-out: Avg_IC50
hGYS2 enzyme (recombinant hGYS2/GN1 protein), sequence (P54840 whole entry): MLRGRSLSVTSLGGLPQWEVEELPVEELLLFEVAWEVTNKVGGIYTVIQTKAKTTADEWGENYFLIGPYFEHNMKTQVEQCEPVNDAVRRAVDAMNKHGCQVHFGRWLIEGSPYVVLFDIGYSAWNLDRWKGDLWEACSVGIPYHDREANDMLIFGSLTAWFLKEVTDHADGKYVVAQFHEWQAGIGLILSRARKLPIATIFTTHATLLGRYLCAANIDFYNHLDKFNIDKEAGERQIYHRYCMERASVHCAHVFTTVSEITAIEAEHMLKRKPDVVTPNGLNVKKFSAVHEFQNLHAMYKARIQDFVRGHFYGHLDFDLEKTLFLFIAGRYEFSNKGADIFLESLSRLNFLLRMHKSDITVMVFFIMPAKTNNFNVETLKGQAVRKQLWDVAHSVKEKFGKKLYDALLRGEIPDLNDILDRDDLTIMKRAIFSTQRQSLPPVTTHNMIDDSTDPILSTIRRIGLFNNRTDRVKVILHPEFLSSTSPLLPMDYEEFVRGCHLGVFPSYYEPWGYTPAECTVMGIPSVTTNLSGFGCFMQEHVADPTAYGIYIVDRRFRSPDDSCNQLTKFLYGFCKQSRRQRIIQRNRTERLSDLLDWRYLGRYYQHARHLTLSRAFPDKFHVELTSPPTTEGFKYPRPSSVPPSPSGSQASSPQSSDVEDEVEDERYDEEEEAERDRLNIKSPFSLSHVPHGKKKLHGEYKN
hGYS2 enzyme (recombinant hGYS2/GN1 protein), sequence (P46976 whole entry partner): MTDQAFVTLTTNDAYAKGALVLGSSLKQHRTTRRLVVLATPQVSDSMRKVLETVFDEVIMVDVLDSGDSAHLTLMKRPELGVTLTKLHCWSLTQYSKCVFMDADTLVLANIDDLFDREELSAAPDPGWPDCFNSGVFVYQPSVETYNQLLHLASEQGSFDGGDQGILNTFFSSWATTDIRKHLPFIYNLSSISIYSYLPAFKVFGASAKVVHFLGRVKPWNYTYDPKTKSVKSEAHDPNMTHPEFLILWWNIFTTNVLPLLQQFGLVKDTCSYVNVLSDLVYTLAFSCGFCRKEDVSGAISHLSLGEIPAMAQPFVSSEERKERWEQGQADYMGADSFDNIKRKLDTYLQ
Summary of the method: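 Recombinant hGYS2/GN1 (200 nM) with 2 mM UDP-glucose, 0.2% rabbit liver glycogen, 2 mM glucose-6-phosphate; UDP coupled via PK/LDH (2 mM PEP, 0.6 mM NADH). Buffer 50 mM Tris pH 7.5, 2 mM MgCl2, 100 mM KCl, 2.5% DMSO. A340 slope over 10 min; IC50 from Hill fit of duplicates.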

[3] = system: hGYS1 enzyme / glycogen synthesis in HeLa cells; assay: GYS1 cell based assay (glycogen synthesis, Glucose-glo); set-up: species or system human; settings: Homo sapiens, HeLa, 24 h, 24 h incubation, 20 mM glucose, geometric mean of at least 2 runs
Summary of the method: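 HeLa cells starved 24 h in medium containing only 1× Glutamax were plated onto compound in medium with 20 mM glucose (1% DMSO final) for 24 h, 37 °C, 5% CO2. Acid lysates were Tris-quenched, glucoamylase-digested (pH 5.3, 1 h, 37 °C) and read by Glucose-glo luminescence. IC50 came from Hill fits, as geometric mean of ≥2 runs.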

hGYS1 enzyme (recombinant hGYS1/GN1 protein), sequence (P13807 whole entry): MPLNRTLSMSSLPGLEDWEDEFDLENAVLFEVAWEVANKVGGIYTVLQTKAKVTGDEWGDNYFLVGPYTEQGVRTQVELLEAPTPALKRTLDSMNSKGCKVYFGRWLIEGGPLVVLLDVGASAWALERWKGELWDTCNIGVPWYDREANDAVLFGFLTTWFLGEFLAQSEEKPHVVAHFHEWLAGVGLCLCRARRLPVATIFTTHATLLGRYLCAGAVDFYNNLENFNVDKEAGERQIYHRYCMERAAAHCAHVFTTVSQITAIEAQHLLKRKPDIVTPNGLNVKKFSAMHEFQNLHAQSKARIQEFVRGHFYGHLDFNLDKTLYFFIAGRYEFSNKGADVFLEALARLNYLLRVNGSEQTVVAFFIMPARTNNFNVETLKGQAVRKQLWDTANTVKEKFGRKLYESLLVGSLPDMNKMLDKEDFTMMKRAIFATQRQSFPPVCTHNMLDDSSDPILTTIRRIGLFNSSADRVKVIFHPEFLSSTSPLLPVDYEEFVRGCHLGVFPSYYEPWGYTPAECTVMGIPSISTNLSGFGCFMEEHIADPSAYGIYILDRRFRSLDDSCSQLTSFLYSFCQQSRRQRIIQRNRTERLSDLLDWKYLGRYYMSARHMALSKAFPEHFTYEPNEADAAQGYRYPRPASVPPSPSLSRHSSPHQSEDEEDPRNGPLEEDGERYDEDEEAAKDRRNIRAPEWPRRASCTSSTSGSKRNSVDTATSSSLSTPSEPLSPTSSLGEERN
hGYS1 enzyme (recombinant hGYS1/GN1 protein), sequence (P46976 whole entry partner): as the sequence (P46976 whole entry partner) above

CNC(=O)NCC(=O)N1C[C@H](F)C[C@H]1C(=O)N[C@@H](c1ccccc1)c1ccc(C2CC2)c(F)n1 [Compound 301, (2S,4R)-N-[(S)-(5-cyclopropyl-6-fluoropyridin-2-yl)(phenyl)methyl]-4-fluoro-1-{2-[(methylcarbamoyl)amino]acetyl}pyrrolidine-2-carboxamide]
IC50 [1]: 46 nM | IC50 [2]: > 100000 nM | IC50 [3]: 900 nM

Cn1nc(CC(=O)N2C[C@H](F)C[C@H]2C(=O)N[C@@H](c2ccccc2)c2ccc(C3CC3)c(F)n2)[nH]c1=O [Compound 303, (2S,4R)-N-[(S)-(5-cyclopropyl-6-fluoropyridin-2-yl)(phenyl)methyl]-4-fluoro-1-[2-(1-methyl-5-oxo-4,5-dihydro-1H-1,2,4-triazol-3-yl)acetyl]pyrrolidine-2-carboxamide]
IC50 [1]: 36 nM | IC50 [2]: > 100000 nM | IC50 [3]: 1520 nM

Cn1c(CC(=O)N2C[C@H](F)C[C@H]2C(=O)N[C@@H](c2ccccc2)c2ccc(C3CC3)c(F)n2)n[nH]c1=O [Compound 304, (2S,4R)-N-[(S)-(5-cyclopropyl-6-fluoropyridin-2-yl)(phenyl)methyl]-4-fluoro-1-[2-(4-methyl-5-oxo-4,5-dihydro-1H-1,2,4-triazol-3-yl)acetyl]pyrrolidine-2-carboxamide]
IC50 [1]: 73 nM | IC50 [2]: > 100000 nM | IC50 [3]: 2330 nM

Cn1nc(CC(=O)N2C[C@H](F)C[C@H]2C(=O)N[C@@H](c2ccccc2)c2ccc(C3CC3)c(F)n2)oc1=O [Compound 306, (2S,4R)-N-[(S)-(5-cyclopropyl-6-fluoropyridin-2-yl)(phenyl)methyl]-4-fluoro-1-[2-(4-methyl-5-oxo-4,5-dihydro-1,3,4-oxadiazol-2-yl)acetyl]pyrrolidine-2-carboxamide]
IC50 [1]: 78 nM | IC50 [2]: > 100000 nM | IC50 [3]: 810 nM

O=C(N[C@@H](c1ccccc1)c1ccc(C2CC2)c(F)n1)[C@@H]1C[C@@H](F)CN1C(=O)Cc1[nH]nnc1C(F)(F)F [Compound 307, (2S,4R)-N-[(S)-(5-cyclopropyl-6-fluoropyridin-2-yl)(phenyl)methyl]-4-fluoro-1-{2-[4-(trifluoromethyl)-1H-1,2,3-triazol-5-yl]acetyl}pyrrolidine-2-carboxamide]
IC50 [1]: 10 nM | IC50 [2]: > 100000 nM | IC50 [3]: 500 nM

Cc1nccc(NCC(=O)N2C[C@H](F)C[C@H]2C(=O)N[C@@H](c2ccccc2)c2ccc(C3CC3)c(F)n2)n1 [Compound 308, (2S,4R)-N-[(S)-(5-cyclopropyl-6-fluoropyridin-2-yl)(phenyl)methyl]-4-fluoro-1-{2-[(2-methylpyrimidin-4-yl)amino]acetyl}pyrrolidine-2-carboxamide]
IC50 [1]: 11 nM | IC50 [2]: > 100000 nM | IC50 [3]: 330 nM

O=C(N[C@@H](c1ccccc1)c1ccc(C2CC2)c(F)n1)[C@@H]1C[C@@H](F)CN1C(=O)CNc1ncco1 [Compound 309, (2S,4R)-N-[(S)-(5-cyclopropyl-6-fluoropyridin-2-yl)(phenyl)methyl]-4-fluoro-1-{2-[(1,3-oxazol-2-yl)amino]acetyl}pyrrolidine-2-carboxamide]
IC50 [1]: 55 nM | IC50 [2]: > 100000 nM | IC50 [3]: 970 nM

C[C@H](NC(=O)N(C)C)C(=O)N1C[C@H](F)C[C@H]1C(=O)N[C@@H](c1ccccc1)c1ccc(C2CC2)c(F)n1 [Compound 310, (2S,4R)-N-[(S)-(5-cyclopropyl-6-fluoropyridin-2-yl)(phenyl)methyl]-1-[(2S)-2-[(dimethylcarbamoyl)amino]propanoyl]-4-fluoropyrrolidine-2-carboxamide]
IC50 [1]: 75 nM | IC50 [2]: > 100000 nM | IC50 [3]: 1290 nM

C[C@@H](NC(=O)N(C)C)C(=O)N1C[C@H](F)C[C@H]1C(=O)N[C@@H](c1ccccc1)c1ccc(C2CC2)c(F)n1 [Compound 311, (2S,4R)-N-[(S)-(5-cyclopropyl-6-fluoropyridin-2-yl)(phenyl)methyl]-1-[(2R)-2-[(dimethylcarbamoyl)amino]propanoyl]-4-fluoropyrrolidine-2-carboxamide]
IC50 [1]: 127 nM | IC50 [2]: > 100000 nM | IC50 [3]: 2100 nM

O=C(N[C@@H](c1ccccc1)c1ccc(C2CC2)c(F)n1)[C@@H]1C[C@@H](F)CN1C(=O)Cc1ncco1 [Compound 312, (2S,4R)-N-[(S)-(5-cyclopropyl-6-fluoropyridin-2-yl)(phenyl)methyl]-4-fluoro-1-[2-(1,3-oxazol-2-yl)acetyl]pyrrolidine-2-carboxamide]
IC50 [1]: 97 nM | IC50 [2]: > 100000 nM | IC50 [3]: 830 nM

Cc1cnc(CC(=O)N2C[C@H](F)C[C@H]2C(=O)N[C@@H](c2ccccc2)c2ccc(C3CC3)c(F)n2)o1 [Compound 313, (2S,4R)-N-[(S)-(5-cyclopropyl-6-fluoropyridin-2-yl)(phenyl)methyl]-4-fluoro-1-[2-(5-methyl-1,3-oxazol-2-yl)acetyl]pyrrolidine-2-carboxamide]
IC50 [1]: 39 nM | IC50 [2]: > 100000 nM | IC50 [3]: 860 nM

Cc1coc(CC(=O)N2C[C@H](F)C[C@H]2C(=O)N[C@@H](c2ccccc2)c2ccc(C3CC3)c(F)n2)n1 [Compound 314, (2S,4R)-N-[(S)-(5-cyclopropyl-6-fluoropyridin-2-yl)(phenyl)methyl]-4-fluoro-1-[2-(4-methyl-1,3-oxazol-2-yl)acetyl]pyrrolidine-2-carboxamide]
IC50 [1]: 63 nM | IC50 [2]: > 100000 nM | IC50 [3]: 1010 nM

O=C(N[C@@H](c1ccccc1)c1ccc(C2CC2)c(F)n1)[C@@H]1C[C@@H](F)CN1C(=O)CNC(=O)N1CC(F)(F)C1 [Compound 315, (2S,4R)-N-[(S)-(5-cyclopropyl-6-fluoropyridin-2-yl)(phenyl)methyl]-1-{2-[(3,3-difluoroazetidine-1-carbonyl)amino]acetyl}-4-fluoropyrrolidine-2-carboxamide]
IC50 [1]: 23 nM | IC50 [2]: > 100000 nM | IC50 [3]: 730 nM

Cc1nn(CC(=O)N2C[C@H](F)C[C@H]2C(=O)N[C@@H](c2ccccc2)c2ccc(C3CC3)c(F)n2)c(=O)o1 [Compound 316, (2S,4R)-N-[(S)-(5-cyclopropyl-6-fluoropyridin-2-yl)(phenyl)methyl]-4-fluoro-1-[2-(5-methyl-2-oxo-2,3-dihydro-1,3,4-oxadiazol-3-yl)acetyl]pyrrolidine-2-carboxamide]
IC50 [1]: 37 nM | IC50 [2]: > 100000 nM | IC50 [3]: 930 nM

O=C(N[C@@H](c1ccccc1)c1ccc(C2CC2)c(F)n1)[C@@H]1C[C@@H](F)CN1C(=O)Cn1ncc(N2CCC2)n1 [Compound 317, (2S,4R)-1-{2-[4-(azetidin-1-yl)-2H-1,2,3-triazol-2-yl]acetyl}-N-[(S)-(5-cyclopropyl-6-fluoropyridin-2-yl)(phenyl)methyl]-4-fluoropyrrolidine-2-carboxamide]
IC50 [1]: 17 nM | IC50 [2]: > 100000 nM | IC50 [3]: 390 nM

O=C(N[C@@H](c1ccccc1)c1ccc(C2CC2)c(F)n1)[C@@H]1C[C@@H](F)CN1C(=O)Cn1ncc(N2CC(F)(F)C2)n1 [Compound 318, (2S,4R)-N-[(S)-(5-cyclopropyl-6-fluoropyridin-2-yl)(phenyl)methyl]-1-{2-[4-(3,3-difluoroazetidin-1-yl)-2H-1,2,3-triazol-2-yl]acetyl}-4-fluoropyrrolidine-2-carboxamide]
IC50 [1]: 20 nM | IC50 [2]: > 100000 nM | IC50 [3]: 580 nM

CCN(CC)c1cnn(CC(=O)N2C[C@H](F)C[C@H]2C(=O)N[C@@H](c2ccccc2)c2ccc(C3CC3)c(F)n2)n1 [Compound 319, (2S,4R)-N-[(S)-(5-cyclopropyl-6-fluoropyridin-2-yl)(phenyl)methyl]-1-{2-[4-(diethylamino)-2H-1,2,3-triazol-2-yl]acetyl}-4-fluoropyrrolidine-2-carboxamide]
IC50 [1]: 7 nM | IC50 [2]: > 100000 nM | IC50 [3]: 240 nM

O=C(N[C@@H](c1ccccc1)c1ccc(C2CC2)c(F)n1)[C@@H]1[C@H]2C[C@H]2CN1C(=O)Cc1cnn[nH]1 [Compound 320, (1S,2S,5R)-N-[(S)-(5-cyclopropyl-6-fluoropyridin-2-yl)(phenyl)methyl]-3-[2-(1H-1,2,3-triazol-5-yl)acetyl]-3-azabicyclo[3.1.0]hexane-2-carboxamide]
IC50 [1]: 197 nM | IC50 [2]: > 100000 nM | IC50 [3]: 1590 nM

C[C@H]1CC[C@@H](C(=O)N[C@@H](c2ccccc2)c2ccc(C3CC3)c(F)n2)N1C(=O)Cc1cnn[nH]1 [Compound 321, (2S,5S)-N-[(S)-(5-cyclopropyl-6-fluoropyridin-2-yl)(phenyl)methyl]-5-methyl-1-[2-(1H-1,2,3-triazol-5-yl)acetyl]pyrrolidine-2-carboxamide]
IC50 [1]: 124 nM | IC50 [2]: > 100000 nM | IC50 [3]: 1240 nM

CC(C)c1ccc([C@@H](NC(=O)[C@@H]2C[C@@H](F)CN2C(=O)Cn2nncc2C(F)(F)F)c2ccccc2)cc1F [Compound 322, (2S,4R)-4-fluoro-N—((S)-(3-fluoro-4-isopropylphenyl)(phenyl)methyl)-1-(2-(5-(trifluoromethyl)-1H-1,2,3-triazol-1-yl)acetyl)pyrrolidine-2-carboxamide]
IC50 [1]: 13 nM | IC50 [2]: > 100000 nM | IC50 [3]: 290 nM

CC(C)c1ccc([C@@H](NC(=O)[C@@H]2CC[C@H](C)N2C(=O)Cc2cnn[nH]2)c2ccccc2)cc1F [Compound 323, (2S,5S)-N-[(S)-[3-fluoro-4-(propan-2-yl)phenyl](phenyl)methyl]-5-methyl-1-[2-(1H-1,2,3-triazol-5-yl)acetyl]pyrrolidine-2-carboxamide]
IC50 [1]: 74 nM | IC50 [2]: > 100000 nM | IC50 [3]: 900 nM
